# Measurements reported in PubChem BioAssay (NCI).
#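 Step 1: Grow cells in 96-well plates. Step 2: Expose to compound for 48 hours at 5 concentrations. Step 3: Interpolate endpoints linearly; if unreached, use highest concentration. Here, GI50 denotes the concentration required for 50% inhibition of growth. TGI denotes the concentration required for complete inhibition of growth.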
# What was measured:
# Assay in all cases: growth of human tumour cells (NCI), 48 h
# MDA-MB-231 breast = tested on: MDA-MB-231 breast
# SNB-75 CNS = tested on: SNB-75 CNS
# IGROV1 ovarian = tested on: IGROV1 ovarian
# UO-31 renal = tested on: UO-31 renal
# SW-620 colon = tested on: SW-620 colon
# HCT-116 colon = tested on: HCT-116 colon
# HCT-15 colon = tested on: HCT-15 colon
# RXF 393 renal = tested on: RXF 393 renal
# SK-MEL-28 melanoma = tested on: SK-MEL-28 melanoma
# NCI-H226 lung = tested on: NCI-H226 lung
# PC-3 prostate = tested on: PC-3 prostate
# DU-145 prostate = tested on: DU-145 prostate
# MALME-3M melanoma = tested on: MALME-3M melanoma
# NCI-H23 lung = tested on: NCI-H23 lung
# SK-MEL-2 melanoma = tested on: SK-MEL-2 melanoma
# A549 NSCLC = tested on: A549 NSCLC
# HS 578T breast = tested on: HS 578T breast
# 786-0 renal = tested on: 786-0 renal
# OVCAR-5 ovarian = tested on: OVCAR-5 ovarian
# UACC-257 melanoma = tested on: UACC-257 melanoma
# KM12 colon = tested on: KM12 colon
# HOP-62 NSCLC = tested on: HOP-62 NSCLC
# CAKI-1 renal = tested on: CAKI-1 renal
# A498 renal = tested on: A498 renal
# HCC-2998 colon = tested on: HCC-2998 colon
# ACHN renal = tested on: ACHN renal
# NCI-H522 lung = tested on: NCI-H522 lung
# SF-268 CNS = tested on: SF-268 CNS
# BT-549 breast = tested on: BT-549 breast
# HT29 colon = tested on: HT29 colon
# SN12C renal = tested on: SN12C renal
# NCI/ADR-RES ovarian = tested on: NCI/ADR-RES ovarian
# SF-295 CNS = tested on: SF-295 CNS
# SK-OV-3 ovarian = tested on: SK-OV-3 ovarian
# MOLT-4 leukemia = tested on: MOLT-4 leukemia
# LOX IMVI melanoma = tested on: LOX IMVI melanoma
# OVCAR-4 ovarian = tested on: OVCAR-4 ovarian
# NCI-H460 lung = tested on: NCI-H460 lung
# K-562 leukemia = tested on: K-562 leukemia
# SR leukemia = tested on: SR leukemia
# UACC-62 melanoma = tested on: UACC-62 melanoma
# CCRF-CEM leukemia = tested on: CCRF-CEM leukemia
# T-47D breast = tested on: T-47D breast
# EKVX NSCLC = tested on: EKVX NSCLC
# SF-539 CNS = tested on: SF-539 CNS
# OVCAR-3 ovarian = tested on: OVCAR-3 ovarian
# RPMI-8226 leukemia = tested on: RPMI-8226 leukemia
# TK-10 renal = tested on: TK-10 renal
# OVCAR-8 ovarian = tested on: OVCAR-8 ovarian
# SNB-19 CNS = tested on: SNB-19 CNS
# U251 CNS = tested on: U251 CNS
# MCF7 breast = tested on: MCF7 breast
# COLO 205 colon = tested on: COLO 205 colon
# M14 melanoma = tested on: M14 melanoma
# MDA-MB-435 = tested on: MDA-MB-435
# HL-60(TB) leukemia = tested on: HL-60(TB) leukemia
# SK-MEL-5 melanoma = tested on: SK-MEL-5 melanoma
smiles,measurement,setting,value
Nc1nonc1-c1nc2cnccc2n1C1CCCCC1,GI50,MDA-MB-231 breast,> 25 µM
same,TGI,MDA-MB-231 breast,> 25 µM
same,GI50,SNB-75 CNS,2420 nM
same,TGI,SNB-75 CNS,> 25 µM
same,GI50,IGROV1 ovarian,> 23.1 µM
same,TGI,IGROV1 ovarian,> 25 µM
same,GI50,UO-31 renal,> 24 µM
same,TGI,UO-31 renal,> 25 µM
same,GI50,SW-620 colon,14 µM
same,TGI,SW-620 colon,> 25 µM
same,GI50,HCT-116 colon,7.45 µM
same,TGI,HCT-116 colon,> 25 µM
same,GI50,HCT-15 colon,13.4 µM
same,TGI,HCT-15 colon,> 25 µM
same,GI50,RXF 393 renal,4.8 µM
same,TGI,RXF 393 renal,> 25 µM
same,GI50,SK-MEL-28 melanoma,> 25 µM
same,TGI,SK-MEL-28 melanoma,> 25 µM
same,GI50,NCI-H226 lung,12.9 µM
same,TGI,NCI-H226 lung,> 25 µM
same,GI50,PC-3 prostate,> 19.9 µM
same,TGI,PC-3 prostate,> 25 µM
same,GI50,DU-145 prostate,20.5 µM
same,TGI,DU-145 prostate,> 25 µM
same,GI50,MALME-3M melanoma,> 25 µM
same,TGI,MALME-3M melanoma,> 25 µM
same,GI50,NCI-H23 lung,> 18.5 µM
same,TGI,NCI-H23 lung,> 25 µM
same,GI50,SK-MEL-2 melanoma,12 µM
same,TGI,SK-MEL-2 melanoma,> 25 µM
same,GI50,A549 NSCLC,13 µM
same,TGI,A549 NSCLC,> 25 µM
same,GI50,HS 578T breast,13.9 µM
same,TGI,HS 578T breast,> 25 µM
same,GI50,786-0 renal,11.1 µM
same,TGI,786-0 renal,> 25 µM
same,GI50,OVCAR-5 ovarian,> 25 µM
same,TGI,OVCAR-5 ovarian,> 25 µM
same,GI50,UACC-257 melanoma,> 25 µM
same,TGI,UACC-257 melanoma,> 25 µM
same,GI50,KM12 colon,9.16 µM
same,TGI,KM12 colon,> 25 µM
same,GI50,HOP-62 NSCLC,> 25 µM
same,TGI,HOP-62 NSCLC,> 25 µM
same,GI50,CAKI-1 renal,11.6 µM
same,TGI,CAKI-1 renal,> 25 µM
same,GI50,A498 renal,5.09 µM
same,TGI,A498 renal,> 25 µM
same,GI50,HCC-2998 colon,> 25 µM
same,TGI,HCC-2998 colon,> 25 µM
same,GI50,ACHN renal,12 µM
same,TGI,ACHN renal,> 25 µM
same,GI50,NCI-H522 lung,6.01 µM
same,TGI,NCI-H522 lung,23.4 µM
same,GI50,SF-268 CNS,> 25 µM
same,TGI,SF-268 CNS,> 25 µM
same,GI50,BT-549 breast,6.29 µM
same,TGI,BT-549 breast,> 25 µM
same,GI50,HT29 colon,9.87 µM
same,TGI,HT29 colon,> 25 µM
same,GI50,SN12C renal,12.5 µM
same,TGI,SN12C renal,> 25 µM
same,GI50,NCI/ADR-RES ovarian,> 22.1 µM
same,TGI,NCI/ADR-RES ovarian,> 25 µM
same,GI50,SF-295 CNS,9.48 µM
same,TGI,SF-295 CNS,> 25 µM
same,GI50,SK-OV-3 ovarian,18.8 µM
same,TGI,SK-OV-3 ovarian,> 25 µM
same,GI50,MOLT-4 leukemia,12 µM
same,TGI,MOLT-4 leukemia,> 25 µM
same,GI50,LOX IMVI melanoma,16.3 µM
same,TGI,LOX IMVI melanoma,> 25 µM
same,GI50,OVCAR-4 ovarian,> 16.6 µM
same,TGI,OVCAR-4 ovarian,> 25 µM
same,GI50,NCI-H460 lung,10.3 µM
same,TGI,NCI-H460 lung,> 25 µM
same,GI50,K-562 leukemia,11 µM
same,TGI,K-562 leukemia,> 25 µM
same,GI50,SR leukemia,7.35 µM
same,TGI,SR leukemia,> 25 µM
same,GI50,UACC-62 melanoma,14.3 µM
same,TGI,UACC-62 melanoma,> 25 µM
same,GI50,CCRF-CEM leukemia,7.84 µM
same,TGI,CCRF-CEM leukemia,> 25 µM
same,GI50,T-47D breast,13.3 µM
same,TGI,T-47D breast,> 25 µM
same,GI50,EKVX NSCLC,> 20.3 µM
same,TGI,EKVX NSCLC,> 25 µM
same,GI50,SF-539 CNS,3.7 µM
same,TGI,SF-539 CNS,> 25 µM
same,GI50,OVCAR-3 ovarian,10.7 µM
same,TGI,OVCAR-3 ovarian,> 25 µM
same,GI50,RPMI-8226 leukemia,16.1 µM
same,TGI,RPMI-8226 leukemia,> 25 µM
same,GI50,TK-10 renal,3.44 µM
same,TGI,TK-10 renal,> 25 µM
same,GI50,OVCAR-8 ovarian,12.8 µM
same,TGI,OVCAR-8 ovarian,> 25 µM
same,GI50,SNB-19 CNS,> 25 µM
same,TGI,SNB-19 CNS,> 25 µM
same,GI50,U251 CNS,16.5 µM
same,TGI,U251 CNS,> 25 µM
same,GI50,MCF7 breast,9.44 µM
same,TGI,MCF7 breast,> 25 µM
same,GI50,COLO 205 colon,6.9 µM
same,TGI,COLO 205 colon,> 25 µM
same,GI50,M14 melanoma,24 µM
same,TGI,M14 melanoma,> 25 µM
same,GI50,MDA-MB-435,22.5 µM
same,TGI,MDA-MB-435,> 25 µM
same,GI50,HL-60(TB) leukemia,7.25 µM
same,TGI,HL-60(TB) leukemia,19.6 µM
same,GI50,SK-MEL-5 melanoma,6.04 µM
same,TGI,SK-MEL-5 melanoma,> 19.2 µM
